The test system of one series is MTB in J774 cells. The series can be described thus: Intracellular activity of amino acid conjugates. It is filed as cell-based, Mycobacterium tuberculosis. To be noted: day 0 RLU 775, Control day 7 31700. On the procedure:
The amino acid conjugates were tested at concentrations of 4 mg/mL and 8 mg/mL compared with a control and isoniazid (INH).
The intracellular activity against MTB by capuramycin amino acid derivatives was tested. Cells J774 were infected with MTB and treated for 7 days with the amino acid derivative. The mean Relative Light Unites (RLU), an estimation of bacterial viability, was measured as described in Snewin et al., Infect. Immun., 1999, 67(9), 4586-4593).

The next series is described as follows: in vitro. It is filed as cell-based. The settings on record: mouse. On the procedure: (§1) The SQ997 amino acid derivatives shown in Table 2 were tested for in vitro activity against MTB, cytotoxicity for uninfected J774 cells to determine IC50, and for intracellular activity in the macrophage assay (Table 15). […] Cell viability remained similar to SQ997, or slightly better as cell morphologic changes were reduced.

The subject of a further series is MTB H37Rv. Put plainly: MIC by broth microdilution. To be noted: Mycobacterium tuberculosis. It is filed as cell-based. On the procedure:
as §1

The subject of the next series is M. avium complex (MAC). The series can be described thus: MIC by microdilution method in 7H9 broth. The settings on record: Mycobacterium avium; for MIC90: value in square brackets, read-out: MIC90. It is filed as cell-based.
The subject of series [1] is M. smegmatis (MSMG; MC2155). Put plainly: MIC by microdilution method in 7H9 broth. It is filed as cell-based. The settings on record: Mycolicibacterium smegmatis, MC2155|MC^2155; MSMG MC^2155; 72 hr; read-out: MIC. Background: Dilution methods test growth across graded concentrations, often in twofold steps.
Series [2] has as its system M. kansaii (MKN; ATCC12478 & 35775). Put plainly: MIC by microdilution method in 7H9 broth. It is filed as cell-based, M. kansasii. The settings on record: Mycobacterium kansasii.
In series [3] the test system is intracellular MTB (MTBp-SMT1) in J774A.1 macrophages. Put plainly: Intracellular activity of SQ641-TPGS micelles. It is filed as cell-based, Mycobacterium tuberculosis.
Series [4] has as its system M. abscessus (MAB; ATCC 700869). The series can be described thus: MIC by microdilution method in 7H9 broth. It is filed as cell-based. The settings on record: Mycobacteroides abscessus, ATCC700869; MAB 700869; read-out: MIC.
The subject of a further series is M. smegmatis. The series can be described thus: Synergy by checkerboard titration (microdilution). It is filed as cell-based. The settings on record: M. smegmatis; for MIC: Mycolicibacterium smegmatis, drug alone.
The next series has as its system M. abscessus. The series can be described thus: Synergy by checkerboard titration (microdilution). It is filed as cell-based.
The test system of series [5] is MTB-pSMT1 luciferase reporter strain. The series can be described thus: Activity against slowly replicating (hypoxic) MTB. It is filed as cell-based. The settings on record: Mycobacterium tuberculosis.
Another series deals with MAC. The series can be described thus: Synergy by checkerboard titration (microdilution). The settings on record: for MIC Combination: combination SQ641 + EMB; for MIC: Mycobacterium avium, drug alone. It is filed as cell-based, M. avium complex.
Where [6] appears, read: 336 h, MAC isolates, 2 wk, read-out: MIC (range).
Setting [7] is: ATCC 12478 / ATCC 35775, MKN ATCC35775, read-out: MIC.

The structures appear in SMILES notation. ≈ marks a conversion by molar mass, not a printed value. Read-outs that look alike come from different tables or passages of the source.

On to `CCCCCCCCCC(=O)O[C@@H]1[C@H](OC)[C@@H]([C@@H](OC2OC(C(=O)N[C@H]3CCC[C@@H](C)NC3=O)=C[C@H](OC(=O)CCOCCOCCOCCOCCN)[C@@H]2OC(=O)CCOCCOCCOCCOCCN)C(N)=O)O[C@H]1n1ccc(=O)[nH]c1=O` (stereo partly drawn) [SQ641-2topdec], for which the results for the “Mean RLU on day 7” value in the series on MTB in J774 cells (4 μg/ml) and with MTB in J774 cells (8 μg/ml) were 4354 RLU and 2903 RLU, respectively.

Regarding `CO[C@H]1[C@@H](OC(=O)c2ccncc2)[C@H](N2C=CC(=O)NC2)O[C@@H]1[C@@H](OC1OC(C(=O)N[C@H]2CCC[C@@H](C)NC2=O)=C[C@H](O)[C@@H]1O)C(N)=O` (stereo partly drawn) [997-isonicotinic acid], the IC50 in “in vitro” was greater than 32 mg/L. In the series with MTB H37Rv, this molecule had an MIC of 4 mg/L (≈ 5.93 µM).

Turning to `CO[C@H]1/C=C/O[C@@]2(C)Oc3c(C)c(O)c4c(O)c(c(/C=N/N5CCN(C)CC5)c(O)c4c3C2=O)NC(=O)/C(C)=C\C=C\[C@H](C)[C@H](O)[C@@H](C)[C@@H](O)[C@@H](C)[C@H](OC(C)=O)[C@@H]1C` [RIF, rifampicin, reference compound], the MIC with M. avium complex (MAC) (setting [6]) is 0.062 to 4 mg/L (≈ 0.0753 to 4.86 µM); in [1] it was 8 mg/L (≈ 9.72 µM); in [2] (ATCC12478), 0.125 mg/L (≈ 0.152 µM); in series [2] (ATCC 12478 / ATCC 35775), 0.125 mg/L (≈ 0.152 µM); in series [4], greater than 32 mg/L; with M. smegmatis, 8 mg/L. Besides, in the series on M. avium complex (MAC) (MAC isolates), the MIC90 was 1 mg/L (≈ 1.22 µM). In series [3], the “Mean RLU at Day 7” value is 22 RLU. Besides, in the series on M. smegmatis (combination SQ641 + RIF), the “MIC Combination” value was 2.0 mg/L.

Molecule `CO[C@H]1[C@@H](OC(=O)C2CCNCC2)[C@H](N2C=CC(=O)NC2)O[C@@H]1[C@@H](OC1OC(C(=O)N[C@H]2CCC[C@@H](C)NC2=O)=C[C@H](O)[C@@H]1O)C(N)=O` (stereo partly drawn) [997-isonipecotic acid] registered an IC50 in the series “in vitro” greater than 32 mg/L. The molecule also displayed an MIC against MTB H37Rv of 8 mg/L (≈ 11.8 µM).

On to `[H]/N=C(/N)N[C@H]1[C@H](O)[C@@H](O)[C@H](O[C@@H]2O[C@@H](C)[C@](O)(C=O)[C@H]2O[C@@H]2O[C@@H](CO)[C@H](O)[C@@H](O)[C@@H]2NC)[C@@H](N/C(N)=N\[H])[C@@H]1O` [SM, streptomycin, reference compound], for which the MIC is 0.5 mg/L (≈ 0.86 µM) in series [1]; 2 mg/L (≈ 3.44 µM) in series [2] (setting [7]); greater than 32 mg/L in series [2] (MKN ATCC12478, read-out: MIC); 8 mg/L with M. abscessus (Mycobacteroides abscessus, drug alone); 8 mg/L (≈ 13.8 µM) in series [4]; 0.25 mg/L (≈ 0.43 µM) in series [5]. Also, the MIC in [5] (Hypoxic, […]) turned out to be 1 mg/L (≈ 1.72 µM); in the series on M. smegmatis it was 0.5 mg/L. Moreover, the “MIC Combination” value turned out to be 2.0 mg/L in the series with M. abscessus (combination SQ641 + SM) and 0.25 mg/L in the series with M. smegmatis (combination SQ641 + SM).

Turning to `CC[C@@H](CO)NCCN[C@@H](CC)CO` [EMB, ethambutol, reference compound], the MIC with M. avium complex (MAC) (setting [6]) is 0.5 to 32 mg/L (≈ 2.45 to 157 µM); in the series with M. avium complex (MAC) (MAC strain 100, read-out: MIC), 4 mg/L (≈ 19.6 µM); with M. avium complex (MAC) (MAC strain 101, read-out: MIC), 1 mg/L (≈ 4.89 µM); with M. avium complex (MAC) (MAC strain 104, read-out: MIC), 2 mg/L (≈ 9.79 µM); in the series with M. avium complex (MAC) (MAC strain 109, read-out: MIC), 0.5 mg/L (≈ 2.45 µM); with M. avium complex (MAC) (MAC strain A5, read-out: MIC) it was 1 mg/L (≈ 4.89 µM). In addition, the MIC in the series on M. avium complex (MAC) (MAC strain JSH1, read-out: MIC) stood at 16 mg/L (≈ 78.3 µM); with M. avium complex (MAC) (MAC strain NIH C1-1, read-out: MIC), 4 mg/L (≈ 19.6 µM); with M. avium complex (MAC) (MAC strain NIH C1-2, read-out: MIC), 2 mg/L (≈ 9.79 µM); in the series on M. avium complex (MAC) (MAC strain NIH C1-3, read-out: MIC) it was 32 mg/L (≈ 157 µM); with M. avium complex (MAC) (MAC strain NIH C1-4, read-out: MIC), 2 mg/L (≈ 9.79 µM); in series [1], 0.5 mg/L (≈ 2.45 µM). Also, the MIC is 1 mg/L with MAC (MAC A5); 32 mg/L with MAC (MAC JSH1); 8 mg/L in the series with MAC (MAC NIH C1-1); 1 mg/L (≈ 4.89 µM) in series [2] (setting [7]); 2 mg/L (≈ 9.79 µM) in series [2] (MKN ATCC12478, read-out: MIC); greater than 32 mg/L in series [4]. Moreover, the MIC in [5] came to 2 mg/L (≈ 9.79 µM); in series [5] (Hypoxic, […]) it was 32 mg/L (≈ 157 µM); in the series on M. smegmatis, 0.5 mg/L. Besides, the MIC90 in the series on M. avium complex (MAC) (MAC isolates) is 16 mg/L (≈ 78.3 µM). Moreover, the “MIC Combination” value in the series on MAC (MAC A5) is 0.062 mg/L; in the series on MAC (MAC JSH1), 8.0 mg/L; in the series on MAC (MAC NIH C1-1) it was 2.0 mg/L; in the series on M. smegmatis (combination SQ641 + EMB), 0.12 mg/L.

What is called IC50 is the concentration at which inhibition is half-maximal. High values mean lower potency, low ones higher potency. As usually defined, the MIC is the least concentration at which growth counts as inhibited. In general, MIC90 refers to an inhibitory concentration at the 90% level, which refers to growth in some studies and to a panel of isolates in others.

These data come from patent US20090281054A1, “COMPOSITIONS AND METHODS COMPRISING CAPURAMYCIN ANALOGUES” (priority 2008, published 2009).
